ChEMBL document CHEMBL5244275, “Geminal Diheteroatomic Motifs: Some Applications of Acetals, Ketals, and Their Sulfur and Nitrogen Homologues in Medicinal Chemistry and Drug Design” (J Med Chem, 2021)
≈ marks a conversion by molar mass, not a printed value. Each block holds one compound with its values, some of them ahead of it.

How the values were obtained:
[1] = Chemical stability of the compound assessed as acid-catalyzed hydrolysis by measuring rate constant; type: physicochemical
[2] = Half-life in human plasma; type: ADME
[3] = Stability of the compound in 1M HCL buffer assessed as drug degradation by measuring rate constant by FRET-based assay; type: physicochemical
[4] = Stability of the compound in HCL solution assessed as compound hydrolysis by measuring relative rate constant by NMR analysis; type: physicochemical; conditions: buffer
[5] = Stability of the compound at pH 2 assessed as half-life; type: physicochemical; conditions: buffer
Substance-P receptor = Substance-P receptor (Homo sapiens, UniProt P25103); experiment: Displacement of [125I]-labeled SP from human NK-1 receptor expressed in CHO cells; type: cell-based
[6] = Oral bioavailability in human; type: ADME, organism-based; conditions: in vivo
[7] = Oral bioavailability in rat; type: ADME, organism-based; conditions: in vivo
[8] = Stability of the compound in 0.01 N HCL at pH 2.0 assessed as half-life; type: physicochemical
[9] = Oral bioavailability in dog; type: ADME, organism-based, Canis lupus familiaris; conditions: in vivo
[10] = Oral bioavailability in mouse; type: ADME, organism-based; conditions: in vivo
[11] = Stability of the compound assessed as compound hydrolysis by measuring rate constant by NMR spectroscopic analysis; type: physicochemical
[12] = Growth inhibition of human PC-12 cells; type: functional, PC12
PC-6 = experiment: Growth inhibition of human PC-6 cells; type: functional
[13] = Dissociation constant, pKa of the compound; type: physicochemical

Substance-P receptor, sequence (P25103 whole entry): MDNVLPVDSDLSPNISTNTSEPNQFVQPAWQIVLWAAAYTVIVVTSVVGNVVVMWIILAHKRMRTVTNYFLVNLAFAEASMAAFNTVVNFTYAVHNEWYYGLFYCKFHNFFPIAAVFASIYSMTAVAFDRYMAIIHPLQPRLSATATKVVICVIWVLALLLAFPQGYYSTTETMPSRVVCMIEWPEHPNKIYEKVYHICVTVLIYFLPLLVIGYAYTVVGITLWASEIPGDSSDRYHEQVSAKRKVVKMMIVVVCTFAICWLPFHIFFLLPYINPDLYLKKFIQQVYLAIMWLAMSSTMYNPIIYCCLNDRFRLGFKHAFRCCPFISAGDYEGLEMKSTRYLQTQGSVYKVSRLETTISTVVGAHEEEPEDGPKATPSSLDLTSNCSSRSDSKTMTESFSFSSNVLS

Structure (SMILES): CCOC1(OCC)CCCCC1
K [4]: 1.3 10^10No_unit

Structure (SMILES): c1cc([C@H]2CC[C@]3(CC2)OOC2(O3)C3CC4CC(C3)CC2C4)ccc1OCCN1CCOCC1 (stereo partly drawn)
bioavailability [7]: 76%

Structure (SMILES): COC1(C)OCCCO1
K [4]: 2.4 10^9No_unit

Structure (SMILES): C[C@H]1[C@@H](CCCC(=O)O)O[C@@H]2O[C@@]3(C)CC[C@H]4[C@H](C)CC[C@@H]1[C@@]24OO3
half-life [8]: 165 h

Structure (SMILES): C[C@H]1[C@@H](Cc2ccccc2)O[C@@H]2O[C@@]3(C)CC[C@H]4[C@H](C)CC[C@@H]1[C@@]24OO3
half-life [8]: 165 h

Structure (SMILES): FC1CCN(CCc2ccc(C3CCC4(CC3)OOC3(OO4)C4CC5CC(C4)CC3C5)cc2)CC1 (stereo not drawn)
bioavailability [9]: 40%
bioavailability [10]: 82%
bioavailability [7]: 62%

Structure (SMILES): C=CC1(C)CCCCC1
K [11]: 9.9 10^-3No_unit

Structure (SMILES): C[C@H]1[C@@H](CCc2ccc(C(=O)O)cc2)O[C@@H]2O[C@@]3(C)CC[C@H]4[C@H](C)CC[C@@H]1[C@@]24OO3
half-life [8]: 165 h

Structure (SMILES): C[C@H]1[C@@H](CCCCC(=O)O)O[C@@H]2O[C@@]3(C)CC[C@H]4[C@H](C)CC[C@@H]1[C@@]24OO3
half-life [8]: 165 h

Structure (SMILES): C1CCC2(CC1)OCCCO2
K [4]: 2.1 10^7No_unit

Structure (SMILES): C[C@@H]1CC[C@H]2[C@@H](C)CO[C@@H]3O[C@@]4(C)CC[C@@H]1[C@]32OO4
half-life [8]: 165 h

Structure (SMILES): CC(=O)O[C@H]1C(=O)[C@@]2(C)[C@H]([C@H](OC(=O)c3ccccc3)[C@]3(O)C[C@H](OC(=O)[C@H](O)[C@@H](NC(=O)c4ccccc4)c4ccccc4)C(C)=C1C3(C)C)[C@]1(OC(C)=O)CO[C@@H]1C[C@@H]2O [PACLITAXEL]
GI50 [12]: 0.539 µg/mL (≈ 0.631 µM)
GI50 (PC-6): 0.00127 µg/mL (≈ 0.00149 µM)

Structure (SMILES): C=CC1(C)OCCO1
K [11]: 8.8 10^-4No_unit

Structure (SMILES): C[C@H]1[C@@H](O[C@H](CCC(=O)O)c2ccc(Cl)cc2)O[C@@H]2O[C@@]3(C)CC[C@H]4[C@H](C)CC[C@@H]1[C@@]24OO3
half-life [8]: 13 h

Further lines, results first:

Drug metabolism [1]: 0.96 L/mol/min
Structure (SMILES): Nc1ncnc2c1ncn2[C@H]1C[C@H](O)[C@@H](CO)O1 [DEOXYADENOSINE]

half-life [2]: 12 h
Structure (SMILES): N=C(N)NCC1COC2(CCCCC2)O1 (stereo not drawn)

K [3]: 3.8 10^-7/s
Structure (SMILES): COc1cc(/N=N/c2ccc([N+](=O)[O-])cc2)c(OC)cc1/N=N/c1ccc(N(C)CCCC(=O)NCCSC2CC(=O)N(CC3OCC(C(=O)NCCCNC(=O)c4ccc(C(=O)[O-])c(-c5c6ccc(=[N+](C)C)cc-6oc6cc(N(C)C)ccc56)c4)CO3)C2=O)cc1 (stereo not drawn)

K [3]: 3.06 10^-7/s
Structure (SMILES): COc1cc(/N=N/c2ccc([N+](=O)[O-])cc2)c(OC)cc1/N=N/c1ccc(N(C)CCCC(=O)NCCSC2CC(=O)N(CC3CCC(C(=O)NCCCNC(=O)c4ccc(C(=O)[O-])c(-c5c6ccc(=[N+](C)C)cc-6oc6cc(N(C)C)ccc56)c4)CC3)C2=O)cc1 (stereo not drawn)

t1/2 [5]: 7 yr
Structure (SMILES): O=C(O)CCC/C=C\C[C@@H]1CO[C@H](C(F)(F)F)O[C@@H]1c1ccccc1O

IC50 (Substance-P receptor): 400 nM
Structure (SMILES): Fc1ccc([C@@H]2NCCO[C@]23CC[C@H](c2ccccc2C(F)(F)F)CO3)cc1

Drug metabolism [1]: 0.29 10^-3L/mol/min
Structure (SMILES): Nc1ncnc2c1ncn2[C@@H]1O[C@H](CO)[C@H](O)[C@H]1O

bioavailability [6]: 20%
Structure (SMILES): Nc1ccn([C@@H]2O[C@H](CO)[C@@H](O)[C@@H]2O)c(=O)n1 [CYTARABINE]

half-life [5]: < 2 min
Structure (SMILES): Nc1nc2c(ncn2[C@H]2C=C[C@@H](CO)O2)c(=O)[nH]1

IC50 (Substance-P receptor): 0.1 nM
Structure (SMILES): COc1cccc(-n2nnnc2C(F)(F)F)c1[C@H]1CO[C@@]2(C1)OCCN[C@H]2c1ccc(F)cc1

IC50 (Substance-P receptor): 24 nM
Structure (SMILES): Fc1ccc([C@@H]2NCCO[C@@]23C[C@@H](c2ccccc2C(F)(F)F)CO3)cc1

Drug metabolism [1]: 0.057 L/mol/min
Structure (SMILES): Nc1ncnc2c1ncn2[C@@H]1O[C@H](CO)C[C@@H]1O

K [4]: 3.3 10^6No_unit
Structure (SMILES): c1ccc2c(c1)COC1(CCCCC1)OC2

bioavailability [6]: 40%
Structure (SMILES): Nc1nc(Cl)nc2c1ncn2[C@H]1C[C@H](O)[C@@H](CO)O1 [CLADRIBINE]

K [4]: 9.3 10^4No_unit
Structure (SMILES): COC1OCCCO1

Drug metabolism [1]: 9.6 10^-3L/mol/min
Structure (SMILES): Nc1ncnc2c1ncn2[C@@H]1O[C@H](CO)[C@H](O)[C@@H]1O

K [4]: 1.3 10^8No_unit
Structure (SMILES): c1ccc2c(c1)CCOC1(CCCCC1)O2

IC50 (Substance-P receptor): 1.1 nM
Structure (SMILES): CN(C)Cc1[nH]nnc1CN1CCO[C@@]2(CC[C@@H](c3ccccc3C(F)(F)F)CO2)[C@@H]1c1ccc(F)cc1

bioavailability [9]: 19%
Structure (SMILES): C[C@@H](c1c[nH]c2ccccc12)[C@H](C(=O)NC[C@H]1OC[C@H](N)CO1)N1CCN(CCCc2ccccc2)C1=O

pKa [13]: 3.7
Structure (SMILES): CCC(C)n1ncn(-c2ccc(N3CCN(c4ccc(OCC5COC(Cn6cncn6)(c6ccc(Cl)cc6Cl)O5)cc4)CC3)cc2)c1=O (stereo not drawn) [ITRACONAZOLE]

K [4]: 3.7 10^6No_unit
Structure (SMILES): CCC1(C)OCCCO1
